# Results as given in patent US6191127A, “Substituted heterocycles and their use in medicaments” (Schering Aktiengesellschaft, priority 1997, dated 2001).
# What was measured:
# Format in all cases: biochemical
# [1] = target: recombinant human brain NO-synthases (bcNOS) (Homo sapiens, UniProt P29475); test: Inhibition assay with recombinant human brain NO-synthases (bcNOS); conditions: substrate [3H]-arginine 4.4E-08 mol/l; bcNOS 0.022 IU/l
# Source text: (§1) The NOS-inhibitory action of the compounds of Formula I and their physiologically compatible salts can be determined with the variants that are mentioned below according to the methods by Bredt and Snyder in Proc. Natl. Acad. Sci. USA (1989) 86, 9030.
# (§2) Inhibition assay with recombinant human brain NO-synthases (bcNOS). (Concentration: 0.022 IU/l). Measured parameters: % inhibition by test compound. Substrate: [3H]-arginine (concentration 4.4E-08 mol/l). Analogously to recombinant human endothelial NO-synthases (ecNOS) and recombinant human inducible NO-synthases (iNOS).
# [2] = target: recombinant human endothelial NO-synthases (ecNOS) (Homo sapiens, UniProt P29474); test: Inhibition assay with recombinant human endothelial NO-synthases (ecNOS); conditions: substrate [3H]-arginine; analogously to bcNOS
# Source text: as §1, §2
# [3] = target: recombinant human inducible NO-synthases (iNOS) (Homo sapiens, UniProt P35228); test: Inhibition assay with recombinant human inducible NO-synthases (iNOS); conditions: substrate [3H]-arginine; analogously to bcNOS
# Source text: as §1, §2
IC50 [1] [µM],IC50 [2] [µM],IC50 [3] [µM],Structure (SMILES)
3,> 10,> 100,"Cc1cc2c(cc1C)OC(C)C(N)=N2 (stereo not drawn) [2,6,7-Trimethyl-3-amino-1,4-benzoxazine]"
20,> 100,> 10,"Cc1cccc2c1OC(C)C(N)=N2 (stereo not drawn) [2,8-Dimethyl-3-amino-1,4-benzoxazine]"
1.2,> 10,> 100,"CCCC1Oc2ccccc2N=C1N (stereo not drawn) [2-n-Propyl-3-amino-1,4-benzoxazine]"
